ChEMBL document CHEMBL1142813, “Synthesis of tripeptides as potent Yersinia protein tyrosine phosphatase inhibitors” (Bioorg Med Chem Lett, 2005)

Assays:
[1] = target: Secreted effector protein (Yersinia pestis, UniProt O68720); assay: Inhibitory concentration against Yersinia pestis YopH expressed in Escherichia coli BL21 cells
[2] = target: T1, Tyrosine-protein phosphatase non-receptor type 1 (Homo sapiens, UniProt P18031); assay: Inhibitory concentration against human PTP1B expressed in Escherichia coli BL21 cells
T1 sequence (P18031 whole entry): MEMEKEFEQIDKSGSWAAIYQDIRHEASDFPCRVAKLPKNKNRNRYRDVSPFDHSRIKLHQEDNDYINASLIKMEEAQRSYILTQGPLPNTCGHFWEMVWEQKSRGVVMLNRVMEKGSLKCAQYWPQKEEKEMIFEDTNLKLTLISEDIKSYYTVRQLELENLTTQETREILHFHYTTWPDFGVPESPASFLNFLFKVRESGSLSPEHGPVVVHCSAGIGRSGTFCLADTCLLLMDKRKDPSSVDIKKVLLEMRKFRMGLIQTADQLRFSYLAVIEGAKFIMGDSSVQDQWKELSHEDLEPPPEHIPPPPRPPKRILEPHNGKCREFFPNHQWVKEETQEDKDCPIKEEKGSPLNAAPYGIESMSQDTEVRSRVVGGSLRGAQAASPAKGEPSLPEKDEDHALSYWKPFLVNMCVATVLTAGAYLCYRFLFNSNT

Chain of Secreted effector protein (O68720 whole entry): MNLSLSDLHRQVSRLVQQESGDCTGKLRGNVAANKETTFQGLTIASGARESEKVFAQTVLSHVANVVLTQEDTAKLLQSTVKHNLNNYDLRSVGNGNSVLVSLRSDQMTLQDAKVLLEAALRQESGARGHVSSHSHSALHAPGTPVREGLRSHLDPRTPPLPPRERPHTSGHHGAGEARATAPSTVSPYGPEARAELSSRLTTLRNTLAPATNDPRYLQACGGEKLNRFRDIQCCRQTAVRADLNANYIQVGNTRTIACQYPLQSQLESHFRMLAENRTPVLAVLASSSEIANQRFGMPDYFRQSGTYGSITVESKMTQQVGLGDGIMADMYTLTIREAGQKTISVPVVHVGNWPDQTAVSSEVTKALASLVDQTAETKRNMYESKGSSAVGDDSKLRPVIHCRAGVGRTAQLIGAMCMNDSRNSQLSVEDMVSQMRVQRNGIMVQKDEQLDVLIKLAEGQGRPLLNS

Cc1ccc2c(c1)CCN2CCC(=O)N[C@@H](CCC(=O)OCc1ccccc1)C(=O)N[C@@H](Cc1ccc(OCC(=O)O)cc1)C(=O)C[C@@H](CC(C)C)C(N)=O
IC50 [1]: 5.6 µM
IC50 [2]: 4.3 µM

CC(C)C[C@H](CC(=O)[C@H](Cc1ccc(OCC(=O)O)cc1)NC(=O)[C@H](CCC(=O)OCc1ccccc1)NC(=O)COc1cccc2ccccc12)C(N)=O
IC50 [1]: 20 µM
IC50 [2]: 13 µM

CC(C)C[C@H](CC(=O)[C@H](Cc1ccc(OCC(=O)O)cc1)NC(=O)[C@H](CCC(=O)OCc1ccccc1)NC(=O)CCCc1c[nH]c2ccccc12)C(N)=O
IC50 [1]: > 100 µM
IC50 [2]: > 100 µM

CC(C)C[C@H](CC(=O)[C@H](Cc1ccc(OCC(=O)O)cc1)NC(=O)[C@H](CCC(=O)OCc1ccccc1)NC(=O)CCc1c[nH]c2ccccc12)C(N)=O
IC50 [1]: > 100 µM
IC50 [2]: > 100 µM

CC(C)C[C@H](CC(=O)[C@H](Cc1ccc(OCC(=O)O)cc1)NC(=O)[C@H](CCC(=O)OCc1ccccc1)NC(=O)OCC1c2ccccc2-c2ccccc21)C(N)=O
IC50 [1]: 1.8 µM
IC50 [2]: 2.9 µM

COc1ccc(Cn2nnc(CC(=O)N[C@@H](CCC(=O)OCc3ccccc3)C(=O)N[C@@H](Cc3ccc(OCC(=O)O)cc3)C(=O)C[C@@H](CC(C)C)C(N)=O)n2)cc1
IC50 [1]: > 100 µM
IC50 [2]: > 100 µM

CC(C)C[C@H](CC(=O)[C@H](Cc1ccc(C(F)(F)C(=O)O)cc1)NC(=O)[C@H](CCC(=O)OCc1ccccc1)NC(=O)OCC1c2ccccc2-c2ccccc21)C(N)=O
IC50 [1]: 2.5 µM
IC50 [2]: 3.1 µM

CC(C)C[C@H](CC(=O)[C@H](Cc1ccc(OC(F)(F)C(=O)O)cc1)NC(=O)[C@H](CCC(=O)OCc1ccccc1)NC(=O)OCC1c2ccccc2-c2ccccc21)C(N)=O
IC50 [1]: 1.9 µM
IC50 [2]: 3.8 µM

CC(C)C[C@H](CC(=O)[C@H](Cc1ccc(OCC(=O)O)cc1)NC(=O)[C@H](CNC(=O)OCc1ccccc1)NC(=O)OCC1c2ccccc2-c2ccccc21)C(N)=O
IC50 [1]: 2.1 µM
IC50 [2]: 4.3 µM

CC(C)C[C@H](NC(=O)[C@H](Cc1ccc(OCC(=O)O)cc1)NC(=O)C(CNC(=O)OCc1ccccc1)CNC(=O)OCc1ccccc1)C(N)=O
IC50 [1]: 4 µM
IC50 [2]: 2.8 µM

Cc1cn(CC(=O)N[C@@H](CCC(=O)OCc2ccccc2)C(=O)N[C@@H](Cc2ccc(OCC(=O)O)cc2)C(=O)C[C@@H](CC(C)C)C(N)=O)c(=O)[nH]c1=O
IC50 [1]: > 100 µM
IC50 [2]: > 100 µM

CC(C)C[C@H](CC(=O)[C@H](Cc1ccc(CC(=O)O)cc1)NC(=O)[C@H](CCC(=O)OCc1ccccc1)NC(=O)OCC1c2ccccc2-c2ccccc21)C(N)=O
IC50 [1]: 2.4 µM
IC50 [2]: 4.6 µM

CC(C)C[C@H](CC(=O)[C@H](Cc1ccc(OCC(=O)O)cc1)NC(=O)[C@H](CCC(=O)OCc1ccccc1)NC(=O)COc1ccc2ccccc2c1)C(N)=O
IC50 [1]: 30 µM
IC50 [2]: 23 µM

CC(C)C[C@H](CC(=O)[C@H](Cc1ccc(OCC(=O)O)cc1)NC(=O)[C@H](CCC(=O)OCc1ccccc1)NC(=O)CCc1cccc2ccccc12)C(N)=O
IC50 [1]: 18 µM
IC50 [2]: 12 µM

CC(C)C[C@H](CC(=O)[C@H](Cc1ccc(OCC(=O)O)cc1)NC(=O)[C@H](CCC(=O)OCc1ccccc1)NS(=O)(=O)CCc1cccc2ccccc12)C(N)=O
IC50 [1]: 22 µM
IC50 [2]: 24 µM

CC(C)C[C@H](CC(=O)[C@H](Cc1ccc(OCC(=O)O)cc1)NC(=O)[C@H](CCC(=O)OCc1ccccc1)NC(=O)CCc1c2ccccc2cc2ccccc12)C(N)=O
IC50 [1]: 12 µM
IC50 [2]: 6.4 µM
